Biological target: T1, human S1P1 receptor (Homo sapiens, UniProt P21453)
T1 construct: expressed in transfected cells; membranes used
Experiment: GTP γ35S binding assay for S1P1 activity
Assay type: biochemical
Settings: membranes of cells stably expressing the S1P1 receptor, test compound 0.08 to 5,000 nM, read-out: S1P1 EC50 (nM) % inhibition
Method: Compounds were synthesized and tested for S1P1 activity using the GTP γ^35S binding assay. These compounds may be assessed for their ability to activate or block activation of the human S1P1 receptor in cells stably expressing the S1P1 receptor.
GTP γ^35S binding was measured in the medium containing (mM) HEPES 25, pH 7.4, MgCl2 10, NaCl 100, dithiothreitol 0.5, digitonin 0.003%, 0.2 nM GTP γ^35S, and 5 μg membrane protein in a volume of 150 μl. Test compounds were included in the concentration range from 0.08 to 5,000 nM unless indicated otherwise. Membranes were incubated with 100 μM 5′-adenylylimidodiphosphate for 30 min, and subsequently with 10 μM GDP for 10 min on ice. Drug, solutions and membrane were mixed, and then reactions were initiated by adding GTP γ^35S and continued for 30 min at 25° C. Reaction mixtures were filtered over Whatman CF/B filters under vacuum, and washed three times with 3 mL of ice-cold buffer (HEPES 25, pH7.4, MgCl2 10 and NaCl 100). Filters were dried and mixed with scintillant, and counted for ^35S activity using […]. Agonist-induced GTP γ^35S binding was obtained by subtracting that in the absence of agonist. Binding data were analyzed using a non-linear regression method. In case of antagonist assay, the reaction mixture contained 10 nM […] in the presence of test antagonist at concentrations ranging from 0.08 to 5000 nM.

T1 sequence (P21453 whole entry): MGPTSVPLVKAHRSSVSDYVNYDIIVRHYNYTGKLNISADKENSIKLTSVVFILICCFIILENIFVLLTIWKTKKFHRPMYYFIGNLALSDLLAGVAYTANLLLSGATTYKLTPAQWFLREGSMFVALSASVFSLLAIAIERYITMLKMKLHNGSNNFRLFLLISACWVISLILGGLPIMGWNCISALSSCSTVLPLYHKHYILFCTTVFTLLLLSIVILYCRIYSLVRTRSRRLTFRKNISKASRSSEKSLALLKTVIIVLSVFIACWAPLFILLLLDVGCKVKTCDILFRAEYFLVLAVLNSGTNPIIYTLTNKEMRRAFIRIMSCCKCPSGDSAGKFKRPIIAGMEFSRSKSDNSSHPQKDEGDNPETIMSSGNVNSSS

Q: For `Cc1ccc(-c2nnc(SC(C)c3ccc(CN4CC(C(=O)O)C4)cc3)o2)cc1C` (stereo not shown) [Compound 1, 1-[4-(1-{[5-(3,4-Dimethylphenyl)-1,3,4-oxadiazol-2-yl]thio}ethyl)benzyl]azetidine-3-carboxylic acid], which EC50 is on record?
A: The EC50 was 22.9 nM.
